Assay results: patent US5980913A, “Peptides having immunomodulatory activity” (Biochem Pharma, Inc., priority 1994, dated 1999)
Where a SMILES comes first, the peptide text is derived from it. [ ]: non-standard residue; d: D form.

Experiments:
P815 target cells = assay: Cytotoxic T lymphocytes (CTL) assay, 51Cr release, after 5 days mixed culture with drug; assay type: cell-based, C57BL/6 mice
From the text: (§1) 1. Cytotoxic T Lymphocytes (CTL) Mixed Lymphocyte Reaction (MLR) and Mitogenic Response Assays
(§2) The protocols used are described in Hudson L., Haay F., Pratical immunology, 3rd edition, Blackwell, Scientific publications, Oxford 1989, p. 158-162, and p.447.
(§3) Lymphocytes were isolated from C57BL/6 mice and DBA/2 mice in accordance to techniques well known in the art. Cell concentration was adjusted to 10×10^6 cell/ml for each assay. The cells isolated from DBA/2 mice were irradiated with 3000 Rads.
(§4) In a 6 well plate, each well was set up with:
(§5) The cells were incubated for five days at 37° C. in 5% CO2, after which CTL and MLR assays were performed.
a) Cytotoxic T Lymphocytes (CTL)
P815 target cells were labelled with Cr^51 (0.1 mCi). After labelling, the cells were washed three times and resuspended to a concentration of 5×10^4 cells/ml in media. p T cells were then counted and diluted to obtain a concentration of 2.5×10^6 cells/ml, and then further diluted to obtain the following effector:target ratios:
100 μl of target cells+100 μl of CTLs were incubated for 4 hours. In parallel wells, 100 μl of target cells+100 μl of media were incubated for spntaneous release. After incubation, cells were centrifuged and 100 μl of supernatant was then counted using a gamma counter.
Results are expressed as % specific ^51 Cr release= [formula] where ER=experimental release, SR=spontaneous releaase, and
0 represents less than 20%, + represents 20-40%, ++ represents 40-60%, +++ represent 60-80%, and ++++ represents 80% and over.

[1] = tested on: C57BL/6 lymphocytes with irradiated DBA/2 cells; assay: Mixed lymphocyte reaction (MLR), 3H thymidine uptake; assay type: cell-based, mice
From the text: as §1, §2, §3, §4, §5
b) Mixed Lymphocyte Reaction (MLR)
Mixed lymphocyte reaction is an in vitro counterpart of the allograft rejection. Briefly, lymphocyte activation (mitotic response) is obtained when cells from two inbred strains or from two outbred individuals of any species are mixed in in vitro culture. To have a unidirectional response, the proliferation of either cell type may be blocked with X-ray irradiation or mitomycin C treatment. After 4 days incubation, ^3 H thymidine uptake and cytotoxicity assays (CTL) were performed. The cells were then resuspended and 100 μl of cell suspension was deposited in each well of a 96 well plate. 1 μCi of tritiated thymidine was added for 6 hours. After incubation, the cells were then harvested and counted using a Microbeta counter.

T cells = assay: Activation of T cells by mitogenic proliferation (ConA, PHA); assay type: cell-based, C57BL/6 mice
From the text: (§6) c) Activation of T or B cells by Mitogenic Proliferation
(§7) A mitogenic lectin (mitogen) is a glycoprotein which binds and cross-links specific cells surface carbohydrate determinants, and will polyclonally stimulate lymphoid cells. Lymphocyte activation by either antigens or mitogens results in intracellular changes and the subsequent development into a lymphoblast. Mitogenic stimulation of lymphocytes in vitro is believed to mimic the series of events which occur in vivo following their stimulation by specific antigens. PHA and ConA; PWM and LPS mitogens can be used as a measurement of T cell and B cell activity, respectively. Briefly, the spleen mononuclear leukocytes from C57BL/6 mice are incubated in the presence or absence of mitogens with or without candidate drugs. After 72 hours or 5 days, ^3 H-thymidine incorporation is recorded as an indication of cell proliferation.
(§8) Lymphocytes were isolated from mice spleen or human blood in accordance to methods well known in the art. 100 μl of cell suspension of 2×10^6 cells/ml was added per well (2x10^5 cells/well) and incubated in the presence of lectin at the following concentrations:
PHA=0.01% to 0.001% final concentration
(§9) Cells were incubated for 3 days with PHA or ConA, or 5 days with PWM or LPS. 1 μCi of tritiated thymidine was added to each well for the last 6 hours (or 0.5 μCi for 18 hrs). The cells were harvested in a cell Harvester (Tortech®) and counted in a Beta counter.

B cells = assay: Activation of B cells by mitogenic proliferation (LPS, PWM); assay type: cell-based, C57BL/6 mice
From the text: as §6, §7, §8
PWM=0.2 to 0.02% final concentration
as §9

[2] = concentration not given, 0 not defined

NCCCC[C@H](N)C(=O)N[C@@H](CC(N)=O)C(=O)N1CCC[C@H]1C(=O)N[C@@H](Cc1ccccc1)C(=O)O [PEPTIDE #4, H-Lys-Asn-Pro-Phe-OH] (H-KNPF-OH)
CTL, % augmentation compared to IL-2 (IL-2 is 100%) (P815 target cells; concentration not given): 0 (0 represents less than 20%)
MLR [1, 2]: 0
Activation of T Cells, ConA (T cells; [2]): 0
Activation of T Cells, PHA (T cells; [2]): 0
Activation of B Cells, LPS (B cells; [2]): 0
Activation of B Cells, PWM (B cells; [2]): 0

NCC(=O)N[C@@H](CC(N)=O)C(=O)N1CCC[C@H]1C(=O)N[C@@H](Cc1ccc(O)cc1)C(=O)O [PEPTIDE #8, H-Gly-Asn-Pro-Tyr-OH] (H-GNPY-OH)
Activation of T Cells, ConA (T cells; [2]): 0
Activation of T Cells, PHA (T cells; [2]): 0
Activation of B Cells, LPS (B cells; [2]): 0
Activation of B Cells, PWM (B cells; [2]): 0

NCCCC[C@H](N)C(=O)N[C@@H](CC(N)=O)C(=O)N1CCC[C@@H]1C(=O)N[C@@H](Cc1ccc(O)cc1)C(=O)O [PEPTIDE #3, H-Lys-Asn-(D-Pro)-Tyr-OH] (H-KN[dP]Y-OH)
CTL, % augmentation compared to IL-2 (IL-2 is 100%) (P815 target cells; 10^-9 M): ++ (++ represents 40-60%)
stimulation of CTL in vitro (in words) (P815 target cells; summary of Table 1): stimulate CTL
MLR [1, 2]: 0
Activation of T Cells, ConA (T cells; [2]): 0
Activation of T Cells, PHA (T cells; [2]): 0
Activation of B Cells, LPS (B cells; [2]): 0
Activation of B Cells, PWM (B cells; [2]): 0

NCCCC[C@H](N)C(=O)N[C@@H](CC(N)=O)C(=O)NCC(=O)N[C@@H](Cc1ccc(O)cc1)C(=O)O [PEPTIDE #2, H-Lys-Asn-Gly-Tyr-OH] (H-KNGY-OH)
CTL, % augmentation compared to IL-2 (IL-2 is 100%) (P815 target cells; 10^-9 M): ++++ (++++ represents 80% and over)
MLR ([1]; 10^-9 M): 1.8 ×
Activation of T Cells, ConA (T cells; 10^-12 M - 10^-10 M): 1.3 ×
Activation of T Cells, PHA (T cells; [2]): 0
stimulation of T cells in vitro (in words) (T cells; summary of Table 1): stimulates T cells to a moderate extent
Activation of B Cells, LPS (B cells; 10^-8 - 10^-5 M): 1.8 - 3.5 ×
Activation of B Cells, PWM (B cells; 10^-8 - 10^-5 M): 1.4 - 4.5 ×
stimulation of B cells in vitro (in words) (B cells; summary of Table 1): stimulates B cells

NCCCC[C@H](N)C(=O)N[C@@H](CCC(N)=O)C(=O)N1CCC[C@H]1C(=O)N[C@@H](Cc1ccc(O)cc1)C(=O)O [PEPTIDE #6, H-Lys-Gln-Pro-Tyr-OH] (H-KQPY-OH)
CTL, % augmentation compared to IL-2 (IL-2 is 100%) (P815 target cells; concentration not given): 0 (0 represents less than 20%)
MLR [1, 2]: 0
Activation of T Cells, ConA (T cells; [2]): 0
Activation of T Cells, PHA (T cells; [2]): 0
Activation of B Cells, LPS (B cells; [2]): 0
Activation of B Cells, PWM (B cells; [2]): 0
